In PMC6540747 (The AAPS journal, 2017):

How the values were obtained:
[1] = test system: liver MPS (human primary cryopreserved hepatocytes and Kupffer cells); experiment: Intrinsic metabolic clearance of the liver MPS on the multi-MPS platform; type: in vitro ADME; details: posterior mean (SD)
[2] = as above; type: in vitro ADME, human; details: human
human hepacyte cultures = details: human hepatocyte cultures; cited from earlier work
[3] = fixed model parameter, same value in all arms; cited from earlier work
[4] = LiverChip technology; cited from earlier work
liver MPS cells = experiment: Liver MPS intracellular accumulation; type: in vitro ADME, human; details: 72h after dosing; Gut / Liver and Liver only arms
[5] = test system: gut MPS and liver MPS on-platform; experiment: Drug and metabolite concentration-time profiles on the multi-MPS platform; type: in vitro ADME, human; details: Gut only arm

SMILES	CLintl (intrinsic metabolic DCF clearance of the liver MPS) ([1]; Gut / Liver arm, 40 μM DCF to gut apical side)	CLintl (intrinsic metabolic DCF clearance of the liver MPS) ([1]; Liver only arm, 40 μM DCF to mixing chamber)	hepatocyte CLint at 40 μM [2] [µL/min/1e6 cells]	Clintl (human hepacyte cultures) [μL/min/10^6 cells]	fum (DCF fraction unbound in circulating common medium) [3]	non-specific binding to PSF [4]	intracellular accumulation in liver MPS (Kp, cells vs liver compartment medium) (liver MPS cells)	time at which concentration-time profiles reach a plateau ([5]; after the dose)	4-OH-DCF levels (mixing chamber concentration) ([5]; after 40 μM DCF dose) [µM]
O=C(O)Cc1ccccc1Nc1c(Cl)cccc1Cl [DCF, diclofenac]	10.18 (0.46) μL/min	8.99 (0.20) μL/min	17	17.8	0.13	absence of non-specific binding	substantial	approximately 24 hours	–
O=C(O)Cc1ccccc1Nc1c(Cl)cc(O)cc1Cl [4-OH-DCF, 4-hydroxy-diclofenac]	–	–	–	–	–	–	substantial	–	< 0.05
